Consider four compounds from patent publication US20140271470A1, “TARGETED THERANOSTICS FOR METASTATIC PROSTATE CANCER” (priority 2013, published 2014).

In experiment [1] the test system is human C4-2 prostate cancer xenografts. Nature of the experiment: Tumor volume growth of C4-2 xenografts treated with SIPP preparations. Type of experiment: in vivo, nude mice. As to conditions: tumor volume growth curves.
Excerpt: Tumor volume growth curves for nude mice bearing human C4-2 prostate cancer xenografts treated with various preparations of SIPPs. (A) Black squares, no treatment controls.
Experiment [2] addresses T1, neurotensin receptor 1 (NTR1) (Homo sapiens, UniProt P30989).
T1 construct: NTR1, which is highly expressed in prostate cancer cells but not in normal prostate epithelial cells; endogenous in cells; PC-3M for the xenograft
As to conditions: combined with radiation; cited from earlier work.

Experiment [3] has as its system PC-3M orthotopic human tumor xenografts. The settings on record: combined with radiation; cited from earlier work.
The subject of another experiment is NF-κB. The settings on record: cited from earlier work.

T1 sequence (P30989 whole entry): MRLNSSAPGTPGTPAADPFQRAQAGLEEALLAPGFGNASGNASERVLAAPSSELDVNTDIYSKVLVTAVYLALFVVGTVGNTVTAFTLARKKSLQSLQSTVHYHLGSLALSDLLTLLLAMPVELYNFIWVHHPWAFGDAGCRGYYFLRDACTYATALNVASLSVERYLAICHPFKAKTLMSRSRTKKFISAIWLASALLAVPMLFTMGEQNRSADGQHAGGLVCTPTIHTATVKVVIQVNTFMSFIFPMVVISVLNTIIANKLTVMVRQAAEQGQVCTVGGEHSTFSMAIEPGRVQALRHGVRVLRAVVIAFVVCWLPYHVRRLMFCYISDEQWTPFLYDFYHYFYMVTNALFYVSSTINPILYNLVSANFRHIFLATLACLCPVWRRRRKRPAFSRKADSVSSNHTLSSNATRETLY

Consider `CC(=O)O[C@H]1C(=O)[C@@]2(C)[C@H]([C@H](OC(=O)c3ccccc3)[C@]3(O)C[C@H](OC(=O)[C@H](O)[C@@H](NC(=O)c4ccccc4)c4ccccc4)C(C)=C1C3(C)C)[C@]1(OC(C)=O)CO[C@@H]1C[C@@H]2O` [Paclitaxel, paclitaxel], for which the “effect on tumor growth” value in experiment [1] was “effective”.

For `COc1cccc(OC)c1-c1cc(C(=O)NC2(C(=O)O)C3CC4CC(C3)CC2C4)nn1-c1ccnc2cc(Cl)ccc12` (centres unmarked) [SR48692], in experiment [2], the apoptotic cell death result is recorded as “increasing apoptotic cell death”; the clonogenic survival entry was “decreasing clonogenic survival”; the “radiosensitization of prostate cancer cells” value was “sensitized prostate cancer cells in a dose- and time-dependent manner”. In experiment [3], the radiosensitization of xenografts result was “efficiently radiosensitizedn” and the tumor burden result is recorded as “significantly reduced tumor burden”.

In the case of `C[C@H]1O[C@@H](O[C@H]2[C@@H](O)C[C@H](O[C@H]3[C@@H](O)C[C@H](O[C@H]4CC[C@@]5(C)[C@H](CC[C@@H]6[C@@H]5CC[C@]5(C)[C@@H](C7=CC(=O)OC7)CC[C@]65O)C4)O[C@@H]3C)O[C@@H]2C)C[C@H](O)[C@@H]1O` [digitoxin], in the experiment with NF-κB, the NF-κB inhibition result is recorded as “potent inhibitors of NF-κB”.

For `C[C@H]1O[C@@H](O[C@H]2[C@@H](O)C[C@H](O[C@H]3[C@@H](O)C[C@H](O[C@H]4CC[C@@]5(C)[C@H](CC[C@@H]6[C@@H]5C[C@@H](O)[C@]5(C)[C@@H](C7=CC(=O)OC7)CC[C@]65O)C4)O[C@@H]3C)O[C@@H]2C)C[C@H](O)[C@@H]1O` [digoxin], the NF-κB inhibition result with NF-κB is listed as “potent inhibitors of NF-κB”.
